Experimental data: US20130303509A1, “NAMPT INHIBITORS” (AbbVie Inc., priority 2012, published 2013)

Tested on: PC3 cells
Test: NAMPT Cell Proliferation Assay
Assay type: cell-based
Conditions: Homo sapiens, PC-3, 120 h, 5 days incubation, cell viability by Cell Titer Glo
Procedure, shortened: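 Seeded at 500 cells/well in RPMI with 10% heat-inactivated FBS and left to attach overnight at 37° C, 5% CO2. Compounds were added as 10-fold dilutions […] for 5 days, then viability was read by CellTiter-Glo. IC50s came from sigmoidal fits of percent inhibition.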

Row | Compound | IC50 [nM]
1 | O=C(Nc1ccc(OC2CCN(C(=O)c3cc(F)cc(F)c3)CC2)cc1)C1CN(c2cccnn2)C1 [Example 243, N-(4-{[1-(3,5-difluorobenzoyl)piperidin-4-yl]oxy}phenyl)-1-(pyridazin-3-yl)azetidine-3-carboxamide] | 9.28
2 | CC(=O)N1CCC(Oc2ccc(NC(=O)C3CN(c4cccnn4)C3)cc2)CC1 [Example 244, -{4-[(1-acetylpiperidin-4-yl)oxy]phenyl}-1-(pyridazin-3-yl)azetidine-3-carboxamide] | 10.4
3 | O=C(Nc1ccc(OC2CCN(C(=O)c3ccc(Cl)cc3)CC2)cc1)C1CN(c2cccnn2)C1 [Example 245, N-(4-{[1-(4-chlorobenzoyl)piperidin-4-yl]oxy}phenyl)-1-(pyridazin-3-yl)azetidine-3-carboxamide] | 7.06
4 | COCC(=O)N1CCC(Oc2ccc(NC(=O)C3CN(c4cccnn4)C3)cc2)CC1 [Example 246, N-(4-{[1-(methoxyacetyl)piperidin-4-yl]oxy}phenyl)-1-(pyridazin-3-yl)azetidine-3-carboxamide] | 9.65
5 | O=C(Nc1ccc(OC2CCN(C(=O)Cc3ccccc3F)CC2)cc1)C1CN(c2cccnn2)C1 [Example 247, N-[4-({1-[(2-fluorophenyl)acetyl]piperidin-4-yl}oxy)phenyl]-1-(pyridazin-3-yl)azetidine-3-carboxamide] | 7.98
6 | CCC(C)(C)C(=O)N1CCC(Oc2ccc(NC(=O)C3CN(c4cccnn4)C3)cc2)CC1 [Example 248, N-(4-{[1-(2,2-dimethylbutanoyl)piperidin-4-yl]oxy}phenyl)-1-(pyridazin-3-yl)azetidine-3-carboxamide] | 6.58
7 | O=C(Nc1ccc(OC2CCN(C(=O)c3cccs3)CC2)cc1)C1CN(c2cccnn2)C1 [Example 249, 1-(pyridazin-3-yl)-N-(4-{[1-(thiophen-2-ylcarbonyl)piperidin-4-yl]oxy}phenyl)azetidine-3-carboxamide] | 2.35
8 | O=C(Nc1ccc(OC2CCN(C(=O)c3cccc(Cl)c3)CC2)cc1)C1CN(c2cccnn2)C1 [Example 250, N-(4-{[1-(3-chlorobenzoyl)piperidin-4-yl]oxy}phenyl)-1-(pyridazin-3-yl)azetidine-3-carboxamide] | 9.11
9 | O=C(Nc1ccc(OC2CCN(C(=O)C3CC3)CC2)cc1)C1CN(c2cccnn2)C1 [Example 251, N-(4-{[1-(cyclopropylcarbonyl)piperidin-4-yl]oxy}phenyl)-1-(pyridazin-3-yl)azetidine-3-carboxamide] | 7.87
10 | O=C(Nc1ccc(OC2CCN(C(=O)CC(F)(F)F)CC2)cc1)C1CN(c2cccnn2)C1 [Example 252, 1-(pyridazin-3-yl)-N-(4-{[1-(3,3,3-trifluoropropanoyl)piperidin-4-yl]oxy}phenyl)azetidine-3-carboxamide] | 9.51
11 | CC(C)C(=O)N1CCC(Oc2ccc(NC(=O)C3CN(c4cccnn4)C3)cc2)CC1 [Example 253, N-(4-{[1-(2-methylpropanoyl)piperidin-4-yl]oxy}phenyl)-1-(pyridazin-3-yl)azetidine-3-carboxamide] | 8.09
12 | CC(C)(C)CC(=O)N1CC(Oc2ccc(NC(=O)C3CN(c4ccnnc4)C3)cc2)C1 [Example 254, N-(4-{[1-(3,3-dimethylbutanoyl)azetidin-3-yl]oxy}phenyl)-1-(pyridazin-4-yl)azetidine-3-carboxamide] | 12
13 | O=C(Nc1ccc(OC2CN(C(=O)C3CCCCC3)C2)cc1)C1CN(c2ccnnc2)C1 [Example 255, N-(4-{[1-(cyclohexylcarbonyl)azetidin-3-yl]oxy}phenyl)-1-(pyridazin-4-yl)azetidine-3-carboxamide] | 24.1
14 | O=C(Nc1ccc(OC2CN(C(=O)CC3CCOCC3)C2)cc1)C1CN(c2ccnnc2)C1 [Example 256, 1-(pyridazin-4-yl)-N-(4-{[1-(tetrahydro-2H-pyran-4-ylacetyl)azetidin-3-yl]oxy}phenyl)azetidine-3-carboxamide] | 145
15 | CC1CC1C(=O)N1CC(Oc2ccc(NC(=O)C3CN(c4ccnnc4)C3)cc2)C1 (centres unmarked) [Example 257, N-[4-({1-[(2-methylcyclopropyl)carbonyl]azetidin-3-yl}oxy)phenyl]-1-(pyridazin-4-yl)azetidine-3-carboxamide] | 76.1
16 | O=C(Nc1ccc(OC2CN(C(=O)CC(F)(F)F)C2)cc1)C1CN(c2ccnnc2)C1 [Example 258, 1-(pyridazin-4-yl)-N-(4-{[1-(3,3,3-trifluoropropanoyl)azetidin-3-yl]oxy}phenyl)azetidine-3-carboxamide] | 309
17 | O=C(Nc1ccc(OC2CN(C(=O)C3CCCC3)C2)cc1)C1CN(c2ccnnc2)C1 [Example 259, N-(4-{[1-(cyclopentylcarbonyl)azetidin-3-yl]oxy}phenyl)-1-(pyridazin-4-yl)azetidine-3-carboxamide] | 72.6
18 | CC(C)(C)CC(=O)N1CCC(Oc2ccc(NC(=O)C3CN(c4ccnnc4)C3)cc2)CC1 [Example 260, N-(4-{[1-(3,3-dimethylbutanoyl)piperidin-4-yl]oxy}phenyl)-1-(pyridazin-4-yl)azetidine-3-carboxamide] | 74.6

Row | Compound | IC50 [nM]
19 | O=C(Nc1ccc(OC2CN(C(=O)C3CCC3)C2)cc1)C1CN(c2ccnnc2)C1 [Example 261, N-(4-{[1-(cyclobutylcarbonyl)azetidin-3-yl]oxy}phenyl)-1-(pyridazin-4-yl)azetidine-3-carboxamide] | 71.5
20 | O=C(Nc1ccc(OC2CN(C(=O)C3CCCO3)C2)cc1)C1CN(c2ccnnc2)C1 (centres unmarked) [Example 262, 1-(pyridazin-4-yl)-N-(4-{[1-(tetrahydrofuran-2-ylcarbonyl)azetidin-3-yl]oxy}phenyl)azetidine-3-carboxamide] | 119
21 | CC(C)CCC(=O)N1CC(Oc2ccc(NC(=O)C3CN(c4ccnnc4)C3)cc2)C1 [Example 263, N-(4-{[1-(4-methylpentanoyl)azetidin-3-yl]oxy}phenyl)-1-(pyridazin-4-yl)azetidine-3-carboxamide] | 59.5
22 | CC(C)C(=O)N1CC(Oc2ccc(NC(=O)C3CN(c4ccnnc4)C3)cc2)C1 [Example 264, N-(4-{[1-(2-methylpropanoyl)azetidin-3-yl]oxy}phenyl)-1-(pyridazin-4-yl)azetidine-3-carboxamide] | 100
23 | CC[C@H](C)C(=O)N1CC(Oc2ccc(NC(=O)C3CN(c4ccnnc4)C3)cc2)C1 [Example 265, N-[4-({1-[(2S)-2-methylbutanoyl]azetidin-3-yl}oxy)phenyl]-1-(pyridazin-4-yl)azetidine-3-carboxamide] | 70.1
24 | CC(C)CC(=O)N1CCC(Oc2ccc(NC(=O)C3CN(c4ccnnc4)C3)cc2)CC1 [Example 266, N-(4-{[1-(3-methylbutanoyl)piperidin-4-yl]oxy}phenyl)-1-(pyridazin-4-yl)azetidine-3-carboxamide] | 83
25 | COCC(=O)N1CCC(Oc2ccc(NC(=O)C3CN(c4ccnnc4)C3)cc2)CC1 [Example 267, N-(4-{[1-(methoxyacetyl)piperidin-4-yl]oxy}phenyl)-1-(pyridazin-4-yl)azetidine-3-carboxamide] | 622
26 | O=C(Nc1ccc(OC2CCN(C(=O)CC(F)(F)F)CC2)cc1)C1CN(c2ccnnc2)C1 [Example 268, 1-(pyridazin-4-yl)-N-(4-{[1-(3,3,3-trifluoropropanoyl)piperidin-4-yl]oxy}phenyl)azetidine-3-carboxamide] | 82.9
27 | O=C(Nc1ccc(OC2CCN(C(=O)C(F)(F)c3ccccc3)CC2)cc1)C1CN(c2ccnnc2)C1 [Example 269, N-[4-({1-[difluoro(phenyl)acetyl]piperidin-4-yl}oxy)phenyl]-1-(pyridazin-4-yl)azetidine-3-carboxamide] | 60.4
28 | O=C(Nc1ccc(OC2CCN(C(=O)C3CCC(F)(F)CC3)CC2)cc1)C1CN(c2ccnnc2)C1 [Example 270, N-[4-({1-[(4,4-difluorocyclohexyl)carbonyl]piperidin-4-yl}oxy)phenyl]-1-(pyridazin-4-yl)azetidine-3-carboxamide] | 62.7
29 | O=C(Nc1ccc(OC2CCN(C(=O)c3ccc(F)cc3)CC2)cc1)C1CN(c2ccnnc2)C1 [Example 271, N-(4-{[1-(4-fluorobenzoyl)piperidin-4-yl]oxy}phenyl)-1-(pyridazin-4-yl)azetidine-3-carboxamide] | 51.5
30 | O=C(Nc1ccc(OC2CCN(C(=O)c3cscn3)CC2)cc1)C1CN(c2ccnnc2)C1 [Example 272, 1-(pyridazin-4-yl)-N-(4-{[1-(1,3-thiazol-4-ylcarbonyl)piperidin-4-yl]oxy}phenyl)azetidine-3-carboxamide] | 79.5
31 | O=C(Nc1ccc(OC2CCN(C(=O)Cc3ccc(C(F)(F)F)cc3)CC2)cc1)C1CN(c2ccnnc2)C1 [Example 273, 1-(pyridazin-4-yl)-N-{4-[(1-{[4-(trifluoromethyl)phenyl]acetyl}piperidin-4-yl)oxy]phenyl}azetidine-3-carboxamide] | 634
32 | O=C(Nc1ccc(OC2CCN(C(=O)c3ccc(F)c(F)c3)CC2)cc1)C1CN(c2ccnnc2)C1 [Example 274, N-(4-{[1-(3,4-difluorobenzoyl)piperidin-4-yl]oxy}phenyl)-1-(pyridazin-4-yl)azetidine-3-carboxamide] | 107
33 | O=C(Nc1ccc(OC2CCN(C(=O)Cc3ccc(OC(F)(F)F)cc3)CC2)cc1)C1CN(c2ccnnc2)C1 [Example 275, 1-(pyridazin-4-yl)-N-{4-[(1-{[4-(trifluoromethoxy)phenyl]acetyl}piperidin-4-yl)oxy]phenyl}azetidine-3-carboxamide] | 683
34 | O=C(Nc1ccc(OC2CCN(C(=O)Cc3ccc(F)cc3)CC2)cc1)C1CN(c2ccnnc2)C1 [Example 276, N-[4-({1-[(4-fluorophenyl)acetyl]piperidin-4-yl}oxy)phenyl]-1-(pyridazin-4-yl)azetidine-3-carboxamide] | 130
35 | O=C(Nc1ccc(OC2CCN(C(=O)Cc3ccc(F)cc3F)CC2)cc1)C1CN(c2ccnnc2)C1 [Example 277, N-[4-({1-[(2,4-difluorophenyl)acetyl]piperidin-4-yl}oxy)phenyl]-1-(pyridazin-4-yl)azetidine-3-carboxamide] | 73.1
